Assay results from ChEMBL document CHEMBL4665636, “Spirooxindole-pyrrolidine heterocyclic hybrids promotes apoptosis through activation of caspase-3” (Bioorg Med Chem, 2019).
Calls of active or inactive are those of the source. The calls are words filed in the database; no cut-off is given here.

Key:
Jurkat [1] = assay: Antiproliferative activity against human Jurkat cells assessed as reduction in cell proliferation measured after 48 hrs by MTT assay; type: functional, cell-based
A549 [2] = assay: Antiproliferative activity against human A549 cells assessed as reduction in cell proliferation measured after 48 hrs by MTT assay; type: functional, cell-based; settings: A549, 48 h
Jurkat [3] = assay: Antiproliferative activity against human Jurkat cells assessed as reduction in cell proliferation measured after 24 hrs by MTT assay; type: functional, cell-based
A549 [4] = assay: Antiproliferative activity against human A549 cells assessed as reduction in cell proliferation measured after 24 hrs by MTT assay; type: functional, cell-based; settings: A549, 24 h
[5] = Cytotoxicity against human PCS-130-010 cells assessed as reduction in cell viability up to 200 uM measured up to 48 hrs by MTT assay; type: cell-based; settings: pcs-130-010, 48 h
[6] = Cytotoxicity against human MCF10 cells assessed as reduction in cell viability up to 200 uM measured up to 48 hrs by MTT assay; type: cell-based; settings: mcf10, 48 h
A549 [7] = assay: Induction of apoptosis in human A549 cells assessed as distribution of cleaved caspase 3 in nuclei at IC50 after 24 to 48 hrs by FITC staining based microscopy analysis; type: functional, cell-based; settings: time hrs 24-48
A549 [8] = assay: Induction of apoptosis in human A549 cells assessed as distribution of cleaved caspase 3 in cytoplasm at IC50 after 24 to 48 hrs by FITC staining based microscopy analysis; type: functional, cell-based; settings: time hrs 24-48
A549 [9] = assay: Induction of apoptosis in human A549 cells assessed as early apoptotic cells at IC50 measured after 48 hrs by annexicV-FITC/propidium iodide staining based flow cytometry analysis (reference value: 3.02 %); type: functional
A549 [10] = assay: Induction of apoptosis in human A549 cells assessed as viable cells by measuring fluorescence intensity at IC50 measured after 48 hrs by annexicV-FITC/propidium iodide staining based flow cytometry analysis (reference value: 96.89 %); type: functional
A549 [11] = assay: Induction of apoptosis in human A549 cells assessed as necrotic cells at IC50 measured after 48 hrs by annexicV-FITC/propidium iodide staining based flow cytometry analysis (reference value: 0 %); type: functional
A549 [12] = assay: Induction of apoptosis in human A549 cells assessed as late apoptotic cells at IC50 measured after 48 hrs by annexicV-FITC/propidium iodide staining based flow cytometry analysis (reference value: 0 %); type: functional
A549 [13] = assay: Induction of apoptosis in human A549 cells assessed as early apoptotic cells at IC50 measured after 48 hrs by annexicV-FITC/propidium iodide staining based flow cytometry analysis (reference value: 0.33 %); type: functional
A549 [14] = assay: Induction of apoptosis in human A549 cells assessed as viable cells at IC50 measured after 48 hrs by annexicV-FITC/propidium iodide staining based flow cytometry analysis (reference value: 99.67 %); type: functional
A549 [15] = assay: Induction of apoptosis in human A549 cells at IC50 measured after 24 hrs by annexicV-FITC/propidium iodide staining based flow cytometry analysis (reference value: 3.63 %); type: functional
A549 [16] = assay: Induction of apoptosis in human A549 cells assessed as effect on viable cells by measuring fluorescence intensity IC50 measured after 24 hrs by annexicV-FITC/propidium iodide staining based flow cytometry analysis (reference value: 96.25 %); type: functional
A549 [17] = assay: Induction of apoptosis in human A549 cells assessed as necrotic cells at IC50 measured after 24 hrs by annexicV-FITC/propidium iodide staining based flow cytometry analysis (reference value: 0.23 %); type: functional
A549 [18] = assay: Induction of apoptosis in human A549 cells assessed as late apoptotic cells at IC50 measured after 24 hrs by annexicV-FITC/propidium iodide staining based flow cytometry analysis (reference value: 0.5 %); type: functional
A549 [19] = assay: Induction of apoptosis in human A549 cells assessed as early apoptotic cells at IC50 measured after 24 hrs by annexicV-FITC/propidium iodide staining based flow cytometry analysis (reference value: 0.16 %); type: functional
A549 [20] = assay: Induction of apoptosis in human A549 cells assessed as viable cells at IC50 measured after 24 hrs by annexicV-FITC/propidium iodide staining based flow cytometry analysis (reference value: 99.11 %); type: functional

| SMILES | IC50 (Jurkat [1]) [µM] | IC50 (A549 [2]) [µM] | IC50 (Jurkat [3]) [µM] | IC50 (A549 [4]) [µM] | Activity [5] | Activity [6] | Activity (A549 [7]) | Activity (A549 [8]) | Activity (A549 [9]) [%] | Activity (A549 [10]) [%] | Activity (A549 [11]) [%] | Activity (A549 [12]) [%] | Activity (A549 [13]) [%] | Activity (A549 [14]) [%] | Activity (A549 [15]) [%] | Activity (A549 [16]) [%] | Activity (A549 [17]) [%] | Activity (A549 [18]) [%] | Activity (A549 [19]) [%] | Activity (A549 [20]) [%] |
| --- | --- | --- | --- | --- | --- | --- | --- | --- | --- | --- | --- | --- | --- | --- | --- | --- | --- | --- | --- | --- |
| O=C1Nc2ccc(OC(F)(F)F)cc2C12NC(Cc1ccc(O)cc1)C([N+](=O)[O-])C2c1cccc([N+](=O)[O-])c1 (centres undefined) | 50.1 | 61.2 | 83.3 | 65 | Non-Toxic | Non-Toxic |  |  |  |  |  |  |  |  |  |  |  |  |  |  |
| COc1ccc(C2C([N+](=O)[O-])C(Cc3ccc(O)cc3)NC23C(=O)Nc2ccc(OC(F)(F)F)cc23)cc1 (centres undefined) | 42 | 41.6 | 62.9 | 53.5 | Non-Toxic | Non-Toxic |  |  |  |  |  |  |  |  |  |  |  |  |  |  |
| O=C1Nc2ccccc2C12NC(Cc1ccc(O)cc1)C([N+](=O)[O-])C2c1ccc(Cl)cc1 (centres undefined) | 51.5 | 59.2 | 77.8 | 74.4 | Non-Toxic | Non-Toxic |  |  |  |  |  |  |  |  |  |  |  |  |  |  |
| CC[C@@]1(O)C(=O)OCc2c1cc1n(c2=O)Cc2cc3ccccc3nc2-1 [CAMPTOTHECIN] | 22 | 32.1 | 51.5 | 50.9 |  |  | Active | Active | 61.13 | 39.71 | 4.14 | 11.17 | 30.71 | 53.97 | 37.51 | 58.66 | 6.31 | 28.49 | 10.49 | 54.71 |
| O=C1Nc2ccccc2C12NC(Cc1ccc(O)cc1)C([N+](=O)[O-])C2c1ccccc1 (centres undefined) | 61.6 | 66.6 | 98.3 | 78.9 | Non-Toxic | Non-Toxic |  |  |  |  |  |  |  |  |  |  |  |  |  |  |
| O=C1Nc2ccc(OC(F)(F)F)cc2C12NC(Cc1ccc(O)cc1)C([N+](=O)[O-])C2c1ccccc1 (centres undefined) | 45 | 44.7 | 65.8 | 45.8 | Non-Toxic | Non-Toxic |  |  |  |  |  |  |  |  |  |  |  |  |  |  |
| O=C1Nc2ccc(OC(F)(F)F)cc2C12NC(Cc1ccc(O)cc1)C([N+](=O)[O-])C2c1ccc(Br)cc1 (centres undefined) | 44.1 | 37.2 | 67.2 | 51.4 | Non-Toxic | Non-Toxic |  |  |  |  |  |  |  |  |  |  |  |  |  |  |
| Cc1ccc(C2C([N+](=O)[O-])C(Cc3ccc(O)cc3)NC23C(=O)Nc2ccccc23)cc1 (centres undefined) | 47.8 | 56.7 | 114 | 106 | Non-Toxic | Non-Toxic |  |  |  |  |  |  |  |  |  |  |  |  |  |  |
| Cc1ccc(C2C([N+](=O)[O-])C(Cc3ccc(O)cc3)NC23C(=O)Nc2ccc(OC(F)(F)F)cc23)cc1 (centres undefined) | 42.9 | 29.6 | 52.8 | 38.7 | Non-Toxic | Non-Toxic | Active | Active | 70.35 | 29.53 | 23.2 | 17.79 | 24.18 | 34.83 | 63.87 | 38.62 | 0 | 9.63 | 31.45 | 58.92 |
| O=C1Nc2ccccc2C12NC(Cc1ccc(O)cc1)C([N+](=O)[O-])C2c1ccc(Br)cc1 (centres undefined) | 43.2 | 39.4 | 73.4 | 59.1 | Non-Toxic | Non-Toxic |  |  |  |  |  |  |  |  |  |  |  |  |  |  |
| O=C1Nc2ccc(OC(F)(F)F)cc2C12NC(Cc1ccc(O)cc1)C([N+](=O)[O-])C2c1ccc(Cl)cc1 (centres undefined) | 44.8 | 38.1 | 67.7 | 44.9 | Non-Toxic | Non-Toxic |  |  |  |  |  |  |  |  |  |  |  |  |  |  |
| COc1ccc(C2C([N+](=O)[O-])C(Cc3ccc(O)cc3)NC23C(=O)Nc2ccccc23)cc1 (centres undefined) | 47.5 | 47.8 | 76.2 | 59.2 | Non-Toxic | Non-Toxic |  |  |  |  |  |  |  |  |  |  |  |  |  |  |
| O=C1Nc2ccccc2C12NC(Cc1ccc(O)cc1)C([N+](=O)[O-])C2c1cccc([N+](=O)[O-])c1 (centres undefined) | 48.6 | 117 | 74.6 | 78.4 | Non-Toxic | Non-Toxic |  |  |  |  |  |  |  |  |  |  |  |  |  |  |
